Results: publication PMC6199744, “Development of Chemical Proteomics for the Folateome and Analysis of the Kinetoplastid Folateome” (ACS Infectious Diseases, 2018)
Like-named read-outs stand apart in the source and are kept apart here.

Experiments:
Assay type in all cases: binding
[1] = target: T1, HeLa cell extract proteins (Homo sapiens, UniProt O43143)
T1 construct: endogenous in cells; host or cells: HeLa cell extract

[2] = target: T2, HeLa cell extract proteins (Homo sapiens, UniProt Q9UHX1)
T2 construct: endogenous in cells; host or cells: HeLa cell extract
T2 sequence (Q9UHX1 1-559): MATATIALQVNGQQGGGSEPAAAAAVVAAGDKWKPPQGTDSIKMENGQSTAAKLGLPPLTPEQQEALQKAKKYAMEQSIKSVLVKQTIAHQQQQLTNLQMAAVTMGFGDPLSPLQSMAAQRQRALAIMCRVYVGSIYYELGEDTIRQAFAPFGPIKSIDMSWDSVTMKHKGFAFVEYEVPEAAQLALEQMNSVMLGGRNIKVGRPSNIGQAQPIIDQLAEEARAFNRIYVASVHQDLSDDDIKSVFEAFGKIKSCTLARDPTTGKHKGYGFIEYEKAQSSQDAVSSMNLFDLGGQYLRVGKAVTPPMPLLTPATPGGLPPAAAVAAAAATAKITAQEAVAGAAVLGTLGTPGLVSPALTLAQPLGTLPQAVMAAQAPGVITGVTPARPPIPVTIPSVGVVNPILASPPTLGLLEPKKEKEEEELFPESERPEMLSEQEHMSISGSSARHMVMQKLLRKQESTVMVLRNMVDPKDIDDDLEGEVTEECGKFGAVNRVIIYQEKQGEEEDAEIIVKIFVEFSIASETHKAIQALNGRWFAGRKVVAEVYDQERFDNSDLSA

[3] = target: T3, HeLa cell extract proteins (Homo sapiens, UniProt P50454)
T3 construct: endogenous in cells; host or cells: HeLa cell extract
T3 sequence (P50454 19-418): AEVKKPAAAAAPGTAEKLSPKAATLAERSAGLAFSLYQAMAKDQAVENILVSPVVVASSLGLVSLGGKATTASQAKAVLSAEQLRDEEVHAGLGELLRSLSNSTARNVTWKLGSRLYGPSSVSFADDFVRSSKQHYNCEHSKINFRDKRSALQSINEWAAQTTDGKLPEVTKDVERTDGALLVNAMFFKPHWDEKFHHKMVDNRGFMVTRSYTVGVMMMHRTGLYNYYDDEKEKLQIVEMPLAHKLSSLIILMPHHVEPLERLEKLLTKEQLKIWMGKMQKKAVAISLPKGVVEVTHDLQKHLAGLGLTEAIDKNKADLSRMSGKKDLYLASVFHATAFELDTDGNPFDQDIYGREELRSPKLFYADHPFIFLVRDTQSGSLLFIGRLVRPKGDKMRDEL

[4] = target: T4, HeLa cell extract proteins (Homo sapiens, UniProt P10599)
T4 construct: endogenous in cells; host or cells: HeLa cell extract
T4 sequence (P10599 1-105): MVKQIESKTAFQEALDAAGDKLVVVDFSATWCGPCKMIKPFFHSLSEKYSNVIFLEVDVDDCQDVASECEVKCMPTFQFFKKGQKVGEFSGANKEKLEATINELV

[5] = target: T5, HeLa cell extract proteins (Homo sapiens, UniProt P61604)
T5 construct: endogenous in cells; host or cells: HeLa cell extract
T5 sequence (P61604 whole entry): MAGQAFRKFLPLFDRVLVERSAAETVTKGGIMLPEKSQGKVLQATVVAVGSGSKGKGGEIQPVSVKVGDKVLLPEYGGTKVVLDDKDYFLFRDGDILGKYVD

[6] = target: T6, HeLa cell extract proteins (Homo sapiens, UniProt O75340)
T6 construct: endogenous in cells; host or cells: HeLa cell extract
T6 sequence (O75340 whole entry): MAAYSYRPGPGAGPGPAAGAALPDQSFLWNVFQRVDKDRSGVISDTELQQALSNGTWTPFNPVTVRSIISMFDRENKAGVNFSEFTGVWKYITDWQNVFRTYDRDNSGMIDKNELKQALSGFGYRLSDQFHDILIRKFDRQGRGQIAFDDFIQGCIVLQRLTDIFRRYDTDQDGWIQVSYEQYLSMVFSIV

[7] = target: T7, HeLa cell extract proteins (Homo sapiens, UniProt Q92973)
T7 construct: endogenous in cells; host or cells: HeLa cell extract
T7 sequence (Q92973 1-898): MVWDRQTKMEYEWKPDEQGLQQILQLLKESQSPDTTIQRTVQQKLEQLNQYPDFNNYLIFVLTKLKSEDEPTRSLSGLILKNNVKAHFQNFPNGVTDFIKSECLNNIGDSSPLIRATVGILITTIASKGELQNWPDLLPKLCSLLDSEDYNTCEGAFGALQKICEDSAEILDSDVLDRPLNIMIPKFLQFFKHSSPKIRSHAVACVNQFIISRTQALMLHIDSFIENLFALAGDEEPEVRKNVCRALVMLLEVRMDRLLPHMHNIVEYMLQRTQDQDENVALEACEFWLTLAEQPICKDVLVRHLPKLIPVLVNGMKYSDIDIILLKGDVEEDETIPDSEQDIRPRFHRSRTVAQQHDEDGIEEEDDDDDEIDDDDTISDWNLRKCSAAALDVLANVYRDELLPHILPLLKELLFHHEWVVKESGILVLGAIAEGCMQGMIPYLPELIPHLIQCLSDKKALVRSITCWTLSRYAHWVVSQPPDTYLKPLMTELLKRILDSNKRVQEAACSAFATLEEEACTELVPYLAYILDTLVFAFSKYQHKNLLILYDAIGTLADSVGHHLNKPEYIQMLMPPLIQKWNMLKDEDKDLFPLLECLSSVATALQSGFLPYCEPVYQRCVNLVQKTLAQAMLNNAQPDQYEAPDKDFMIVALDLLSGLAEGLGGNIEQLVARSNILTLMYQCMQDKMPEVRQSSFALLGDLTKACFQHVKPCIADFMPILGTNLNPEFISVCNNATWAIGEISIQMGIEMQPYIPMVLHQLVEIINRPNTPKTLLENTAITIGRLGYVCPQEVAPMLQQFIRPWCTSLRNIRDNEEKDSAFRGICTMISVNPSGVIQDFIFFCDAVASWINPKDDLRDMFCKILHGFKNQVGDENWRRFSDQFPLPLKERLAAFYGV

[8] = HeLa, protein PDCD6 (PROGRAMMED CELL DEATH PROTEIN 6)

T1 sequence (O43143 whole entry): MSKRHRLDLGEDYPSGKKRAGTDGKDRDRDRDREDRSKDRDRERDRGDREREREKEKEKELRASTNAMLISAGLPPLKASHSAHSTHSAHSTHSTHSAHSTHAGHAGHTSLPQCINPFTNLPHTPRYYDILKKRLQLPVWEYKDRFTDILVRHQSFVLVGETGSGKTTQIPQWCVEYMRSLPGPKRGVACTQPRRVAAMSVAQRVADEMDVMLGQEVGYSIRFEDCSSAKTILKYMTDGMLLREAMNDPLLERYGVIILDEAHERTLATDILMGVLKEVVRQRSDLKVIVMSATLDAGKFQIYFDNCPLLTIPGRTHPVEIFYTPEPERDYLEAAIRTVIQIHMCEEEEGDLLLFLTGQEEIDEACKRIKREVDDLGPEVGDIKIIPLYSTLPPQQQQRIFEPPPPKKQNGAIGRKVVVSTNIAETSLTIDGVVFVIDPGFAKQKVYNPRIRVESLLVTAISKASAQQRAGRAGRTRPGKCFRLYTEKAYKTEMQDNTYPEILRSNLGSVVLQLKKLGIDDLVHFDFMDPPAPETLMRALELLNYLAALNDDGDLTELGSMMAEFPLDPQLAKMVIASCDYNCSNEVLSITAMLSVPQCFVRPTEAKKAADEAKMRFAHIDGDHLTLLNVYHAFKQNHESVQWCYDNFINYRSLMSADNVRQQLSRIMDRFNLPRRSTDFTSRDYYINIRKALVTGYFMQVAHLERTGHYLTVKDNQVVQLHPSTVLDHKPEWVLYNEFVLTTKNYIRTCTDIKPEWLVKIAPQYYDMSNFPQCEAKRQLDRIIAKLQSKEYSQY

SMILES	fold changes relative to vehicle control ([1]; protein DHX15, HeLa)	fold changes relative to vehicle control ([2]; HeLa, captured protein PUF60)	fold changes relative to vehicle control ([3]; HeLa, protein SERPINH1)	fold changes relative to vehicle control ([4]; HeLa, protein TXN)	fold changes relative to vehicle control ([5]; HeLa, protein HSPE1)	fold changes relative to vehicle control [6, 8]	fold changes relative to vehicle control ([7]; HeLa, protein TNPO1)	fold changes relative to vehicle control ([1]; captured protein DHX15, HeLa)	fold changes relative to vehicle control ([2]; HeLa, protein PUF60)	fold changes relative to vehicle control ([3]; protein SERPINH1, HeLa)	fold changes relative to vehicle control ([4]; captured protein TXN, HeLa)	fold changes relative to vehicle control ([5]; protein HSPE1, HeLa)	fold changes relative to vehicle control ([6]; HeLa, protein PDCD6)	fold changes relative to vehicle control ([7]; protein TNPO1, HeLa)	further results
Nc1nc2c(c(=O)[nH]1)N(C=O)C(CNc1ccc(C(=O)N[C@@H](CCC(=O)O)C(=O)O)cc1)CN2 (stereo partly shown) [LEU, leucovorin]	0.74	1.01	0.99	1.05	1.16	1.14	0.98								
NCCCNc1ccc(C(=O)NC(CCC(=O)O)C(=O)O)cc1 (stereo not shown) [compound 7]	0.75	0.95	0.98	1.33	1.15	1.05	0.99								
CCCCCCOc1cccc(Cc2cnc(N)nc2N)c1 [compound 2]								0.9	1.05	1.61	1.18	2.39	0.92	1.1	
CCCCCCOc1ccc(Cc2cnc(N)nc2N)cc1 [compound 1]								0.71	1.01	1.07	0.95	1.38	1.03	1.01	
Nc1nc2cccc(-c3ccccc3)c2n1Cc1ccc(Cl)c(Cl)c1 [compound 3]								0.62	1.02	0.93	1.12	0.85	1.07	1	
NCCOCCOCC(=O)Nc1nc2ncc(CNc3ccc(C(=O)NC(CCC(=O)O)C(=O)O)cc3)nc2c(=O)[nH]1 (stereo not shown) [compound 6]	0.83	0.92	1.21	1.28	1.69	0.98	1.03								
Nc1nc2[nH]cc(CCc3ccc(C(=O)N[C@@H](CCC(=O)O)C(=O)O)cc3)c2c(=O)[nH]1 [PTX, pemetrexed]															fold changes relative to vehicle control [1]: 0.71; fold changes relative to vehicle control [2]: 0.9; fold changes relative to vehicle control [3]: 1.08; fold changes relative to vehicle control [4]: 1.13; fold changes relative to vehicle control [5]: 1.42; fold changes relative to vehicle control [6]: 1.06; fold changes relative to vehicle control [7]: 0.94
